Columns and labels:
[1] = system: sections of human gastric cancer; test: Confocal microscopy of staining of human gastric cancer ex vivo
Text: We observed good co-localization of peptide and antibody binding on merged images, Supplementary Figure 6C. Representative histology (H&E) for gastric cancer is shown, Supplementary Figure 6D. […] Representative histology (H&E) for normal stomach is shown, Supplementary Figure 6H.

[2] = system: sections of human esophagus ex vivo; test: Confocal microscopy of staining of human esophageal specimens ex vivo (SQ, BE, HGD, EAC)
Protocol: Formalin-fixed sections of human esophageal specimens were deparaffinized, and antigen retrieval was performed using standard methods. Briefly, the sections were incubated in xylene for 3 min 3X, washed with 100% ethanol for 2 min 2X, and washed with 95% ethanol for 2 min 2X. Rehydration was performed by washing in dH2O for 5 min 2X. Antigen unmasking was performed by boiling the slides in 10 mM sodium citrate buffer with 0.05% Tween at pH 6.0, and then maintaining at sub-boiling temperature for 15 min. The slides were cooled for 30 min, and the sections were washed in dH2O for 3 min 3X and in PBS for 5 min. Blocking was performed with DAKO protein blocking agent (X0909, DAKO) for 1 hour at RT. The peptides were incubated at a concentration of 1 μM for 10 min at RT. The sections were washed in PBS for 3 min 3X, and incubated with 1:1000 dilution of monoclonal anti-FGFR2 (Abcam, ab58201) overnight at 4°C.
The sections were then washed in PBS for 5 min 3X. A 1:500 dilution of AF488-labeled secondary antibody (goat anti-mouse) was added to each section and incubated for 30 min at RT. The secondary antibody solution was removed by washing with PBS for 5 min 3X. The sections were then mounted with ProLong Gold reagent containing DAPI (Invitrogen). The mean fluorescence intensities from 3 boxes (dimensions of 30×30 μm^2) located completely within the surface epithelium of each specimen were measured. […] Serial sections were processed for routine histology (H&E), and were reviewed by an expert gastrointestinal pathologist (HDA).

[3] = system: QhTERT cells that express FGFR2c; test: Confocal fluorescence microscopy, binding to QhTERT cells that express FGFR2c; assay type: cell-based, human
Text: All human esophageal specimens were obtained with written, informed patient consent per approval and guidelines of the University of Michigan Institutional Review Board (IRB). Human non-dysplastic Barrett's esophagus (BE) cells immortalized with hTert (QhTERT) were obtained from the American Type Culture Collection (ATCC) and cultured in keratinocyte-serum free medium containing bovine pituitary extract and human recombinant EGF (ThermoFisher #17005042). QhTERT cells with stable expression of FGFR2b or FGFR2c were provided (DGB). We cultured these cells with keratinocyte-serum free medium containing bovine pituitary extract and human recombinant EGF (ThermoFisher #17005042) and added 1 μg/mL of puromycin-dihydrochloride (Invitrogen #A11138-03). All cells were cultured at 37°C in 5% CO2, and were passaged using 0.25% EDTA containing trypsin (Mediatech Inc). A hemocytometer was used to determine cell number. Peptide synthesis reagents were obtained from either Anaspec or AAPPTEC with the highest grade available (>99% purity) and used without further purification. Solvents and other chemical reagents were obtained from Sigma-Aldrich, unless otherwise stated.
~10^3 QhTERT/wt, QhTERT/FGFR2b, and QhTERT/FGFR2c cells were grown on cover glass to ~80% confluence. The cells were washed with PBS 1X and incubated with 1 μM of either peptide for 10 min at RT. The cells were then washed 3X in PBS, fixed with 4% paraformaldehyde (PFA) for 5 min, washed 1X with PBS, and then mounted on glass slides with ProLong Gold reagent containing DAPI (Invitrogen). Confocal fluorescence images were collected with Cy5.5 and DAPI filters (Leica Inverted SP5X 2-Photon FLIM confocal microscopes) using a 63X oil-immersion objective. Fluorescence intensities from 3 cells in each of 3 independent images were quantified using custom Matlab (Mathworks) software.

fluorescence intensity / binding, gastric cancer ([1]; gastric cancer sections ex vivo, n = 33 patients): strong fluorescence intensity
Sequence: SRRPASFRTARE [SRR^*-Cy5.5]
mean fluorescence intensity, gastric cancer versus normal, SRR*-Cy5.5 ([1]; P=7×10-17, paired two-sided t-test, 3 boxes of 30×30 μm2): significantly greater mean fluorescence intensity
staining, normal human stomach ([1]; normal stomach, comparison): minimal staining
mean T/B ratio, HGD and EAC versus BE and SQ ([2]; 3 boxes of 30×30 μm^2, n = 28, 33, 22, 17 specimens of SQ, BE, HGD, EAC): significantly higher
mean fluorescence intensity, HGD and EAC versus BE ([2]; ANOVA, 4 means, log-transformed data, 3 boxes of 30×30 μm^2): significantly greater mean fluorescence intensity
fluorescence intensity / staining, Barrett's esophagus (BE) ([2]; BE, n = 33 specimens, peptide 1 μM, 10 min at RT, antibody 1:1000 overnight at 4°C): minimal fluorescence intensity
fluorescence intensity / staining, esophageal adenocarcinoma (EAC) ([2]; EAC, n = 17 specimens, peptide 1 μM, 10 min at RT, antibody 1:1000 overnight at 4°C): strong signal
fluorescence intensity / staining, high-grade dysplasia (HGD) ([2]; HGD, n = 22 specimens, peptide 1 μM, 10 min at RT, antibody 1:1000 overnight at 4°C): strong signal
fluorescence intensity / staining, squamous (SQ) ([2]; SQ, n = 28 specimens, peptide 1 μM, 10 min at RT, antibody 1:1000 overnight at 4°C): minimal fluorescence intensity
cell surface fluorescence signal / binding ([3]; 1 μM peptide, 10 min at RT, confocal, 63X): strong signal
mean fluorescence intensity versus control SPS^*-Cy5.5 ([3]; compared with wild-type, log-transformed, ANOVA, 3 random cells on each of 3 slides): significantly greater mean fluorescence intensity
